Like-named read-outs stand apart in the source and are kept apart here.

Data on six molecules can be found in patent US20250115620A1, “BRIDGED TRICYCLIC CARBAMOYLPYRIDONE COMPOUNDS AND USES THEREOF” (Gilead Sciences, Inc., priority 2022, published 2025).

One series concerns pLAI reporter virus. Nature of the series: microbe, parasite or virus in culture. It is filed as cell-based, HIV. Particulars: Human immunodeficiency virus 1, MT4, 72 h.
A further series can be described thus: in vitro. Particulars: human, uninfected MT-4 cells.
For the next series, the system named is HIV-1 (IIIB). Nature of the series: microbe, parasite or virus in culture. Type of series: cell-based. Particulars: Human immunodeficiency virus 1, IIIB, MT4, 120 h, HIV-1 (IIIB) in MT-4 cells, 5 days incubation, Cell Titer Glo; read-out: MT4 EC50. In general terms: In ATP-based viability assays light output follows the ATP content of the culture.

Consider `C[C@H]1CC[C@]2(CC(=O)N(Cc3ccc(Cl)cc3)O2)[C@H]2CN1C(=O)c1c(O)c(=O)c(C(=O)NCc3c(F)cc(F)cc3F)cn12` [Example 109, (3′S,5S,7′R)-2-(4-chlorobenzyl)-12′-hydroxy-3′-methyl-1′,3,11′-trioxo-N-(2,4,6-trifluorobenzyl)-1′,4′,5′,11′-tetrahydro-3′H,7′H-spiro[isoxazolidine-5,6′-[2,7]methanopyrido[1,2-a][1,4]diazonine]-10′-carboxamide], for which the EC50 stood at 3.9 nM in the series with pLAI reporter virus (read-out: RLUC 50% HS EC50), 0.3 nM with pLAI reporter virus (read-out: RLUC CCM EC50) and 1.6 nM in the series with HIV-1 (IIIB). The midpoint of cytotoxicity in “in vitro”, the CC50 at 5 days, lay at 2890 nM.
As for `C[C@H]1CC[C@]2(CC(=O)N(Cc3ccc(F)cc3F)O2)[C@H]2CN1C(=O)c1c(O)c(=O)c(C(=O)NCc3c(F)cc(F)cc3F)cn12` [Example 110, (3′S,5S,7′R)-2-(2,4-difluorobenzyl)-12′-hydroxy-3′-methyl-1′,3,11′-trioxo-N-(2,4,6-trifluorobenzyl)-1′,4′,5′,11′-tetrahydro-3′H,7′H-spiro[isoxazolidine-5,6′-[2,7]methanopyrido[1,2-a][1,4]diazonine]-10′-carboxamide], the figures for the EC50 in the series on pLAI reporter virus (read-out: RLUC 50% HS EC50), with pLAI reporter virus (read-out: RLUC CCM EC50) and in the series on HIV-1 (IIIB) were 2.9 nM, 0.3 nM and 1.2 nM, respectively. In addition, in “in vitro”, the CC50 at 5 days came to 12000 nM.
On to `C[C@H]1CC[C@]2(CC(=O)N(Cc3cccc(C(F)(F)F)c3)O2)[C@H]2CN1C(=O)c1c(O)c(=O)c(C(=O)NCc3c(F)cc(F)cc3F)cn12` [Example 111, (3′S,5S,7′R)-12′-hydroxy-3′-methyl-1′,3,11′-trioxo-N-(2,4,6-trifluorobenzyl)-2-(3-(trifluoromethyl)benzyl)-1′,4′,5′,11′-tetrahydro-3′H,7′H-spiro[isoxazolidine-5,6′-[2,7]methanopyrido[1,2-a][1,4]diazonine]-10′-carboxamide], for which the EC50 with pLAI reporter virus (read-out: RLUC 50% HS EC50) came out at 1.9 nM; with pLAI reporter virus (read-out: RLUC CCM EC50), 0.4 nM; in the series with HIV-1 (IIIB), 2.3 nM. This molecule also returned a CC50 at 5 days in “in vitro” of 7230 nM.
`C[C@H]1CC[C@]2(CC(=O)N(Cc3ccc4ncsc4c3)O2)[C@H]2CN1C(=O)c1c(O)c(=O)c(C(=O)NCc3c(F)cc(F)cc3F)cn12` [Example 112, (3′S,5S,7′R)-2-(benzo[d]thiazol-6-ylmethyl)-12′-hydroxy-3′-methyl-1′,3,11′-trioxo-N-(2,4,6-trifluorobenzyl)-1′,4′,5′,11′-tetrahydro-3′H,7′H-spiro[isoxazolidine-5,6′-[2,7]methanopyrido[1,2-a][1,4]diazonine]-10′-carboxamide]: the results for the EC50 in the series on pLAI reporter virus (read-out: RLUC 50% HS EC50), with pLAI reporter virus (read-out: RLUC CCM EC50) and in the series with HIV-1 (IIIB) were 0.4 nM, 0.2 nM and 0.7 nM, respectively. For the same molecule, in the series “in vitro”, the CC50 at 5 days is ≥ 50000 nM.
For `C[C@H]1CC[C@]2(CC(=O)N(Cc3ccc4scnc4c3)O2)[C@H]2CN1C(=O)c1c(O)c(=O)c(C(=O)NCc3c(F)cc(F)cc3F)cn12` [Example 113, (3′S,5S,7′R)-2-(benzo[d]thiazol-5-ylmethyl)-12′-hydroxy-3′-methyl-1′,3,11′-trioxo-N-(2,4,6-trifluorobenzyl)-1′,4′,5′,11′-tetrahydro-3′H,7′H-spiro[isoxazolidine-5,6′-[2,7]methanopyrido[1,2-a][1,4]diazonine]-10′-carboxamide], the figures for the EC50 with pLAI reporter virus (read-out: RLUC 50% HS EC50), with pLAI reporter virus (read-out: RLUC CCM EC50) and with HIV-1 (IIIB) were 0.7 nM, 0.1 nM and 0.7 nM, respectively. The CC50 at 5 days in “in vitro” was ≥ 50000 nM.
For `C[C@H]1CC[C@]2(CC(=O)N(Cc3cccc4[nH]cnc34)O2)[C@H]2CN1C(=O)c1c(O)c(=O)c(C(=O)NCc3c(F)cc(F)cc3F)cn12` [Example 114, (3′S,5S,7′R)-2-((1H-benzo[d]imidazol-4-yl)methyl)-12′-hydroxy-3′-methyl-1′,3,11′-trioxo-N-(2,4,6-trifluorobenzyl)-1′,4′,5′,11′-tetrahydro-3′H,7′H-spiro[isoxazolidine-5,6′-[2,7]methanopyrido[1,2-a][1,4]diazonine]-10′-carboxamide], the EC50 in the series with pLAI reporter virus (read-out: RLUC 50% HS EC50) stood at 5.9 nM; with pLAI reporter virus (read-out: RLUC CCM EC50) it was 1.9 nM; in the series with HIV-1 (IIIB), 6.1 nM. Moreover, the CC50 at 5 days in the series “in vitro” was ≥ 50000 nM.

The term EC50 denotes the midpoint of the concentration-response curve. The term CC50 denotes the concentration at which the toxic effect on the cells reaches its halfway point.
